ChEMBL document CHEMBL3885881, “DrugMatrix”

Species: Rattus norvegicus
Assay: DrugMatrix - Regimen: Daily Repeat
Assay type: toxicity, organism-based, Sprague-Dawley
Parameters: regimen Daily Repeat, gender Male, age 6-8 weeks
Conditions: in vivo, po, route oral GAVAGE, vehicle 100 % WATER; for ABSOLUTE BASOPHIL / ABSOLUTE EOSINOPHIL / ABSOLUTE LYMPHOCYTE / ABSOLUTE MONOCYTE / ABSOLUTE SEGMENTED NEUTROPHIL / BASOPHIL / EOSINOPHIL / ERYTHROCYTE COUNT / HEMATOCRIT / HEMOGLOBIN / LEUKOCYTE COUNT / LYMPHOCYTE / MEAN CORPUSCULAR HEMOGLOBIN / MEAN CORPUSCULAR HEMOGLOBIN CONCENTRATION / MEAN CORPUSCULAR VOLUME / MONOCYTE / NEUTROPHIL / NUCLEATED RED BLOOD CELLS / PLATELET COUNT: tissue Blood; for ALANINE AMINOTRANSFERASE / ALBUMIN / ALKALINE PHOSPHATASE / ASPARTATE AMINOTRANSFERASE / BLOOD UREA NITROGEN / CARBON DIOXIDE / CHLORIDE / CHOLESTEROL / CREATINE PHOSPHOKINASE / CREATININE / GLUCOSE / LACTATE DEHYDROGENASE / LIPASE / PHOSPHORUS / POTASSIUM / SODIUM / TOTAL BILIRUBIN / TOTAL PROTEIN / URIC ACID: tissue Plasma
[1] = 10 mg/kg, 120 h, dose level Low, time 5 day
[2] = 280 mg/kg, 72 h, dose level High, time 3 day
[3] = 280 mg/kg, 120 h, dose level High, time 5 day

With `NNc1nncc2ccccc12` [HYDRALAZINE] the “ABSOLUTE BASOPHIL” value [1] was 0 CELLS/uL, the “ABSOLUTE EOSINOPHIL” value [1] was 0 CELLS/uL and the “ABSOLUTE LYMPHOCYTE” value [1] was 12743.33 CELLS/uL. For the same molecule, the “ABSOLUTE MONOCYTE” value [1] was 327.33 CELLS/uL, the “ABSOLUTE SEGMENTED NEUTROPHIL” value [1] was 1062.67 CELLS/uL and the BASOPHIL [1] was 0%. The EOSINOPHIL [1] was 0%, the “ERYTHROCYTE COUNT” value [1] was 5.27 x10E6/uL and the HEMATOCRIT [1] was 32.27%. The HEMOGLOBIN [1] was 13.07 G/DL, the “LEUKOCYTE COUNT” value [1] was 14.13 x10E3/uL and the LYMPHOCYTE [1] was 90%. For the same molecule, the “MEAN CORPUSCULAR HEMOGLOBIN” value [1] was 24.8 pg, the “MEAN CORPUSCULAR HEMOGLOBIN CONCENTRATION” value [1] was 40.53 G/DL and the “MEAN CORPUSCULAR VOLUME” value [1] was 61.17 fL. The MONOCYTE [1] was 2.33%, the NEUTROPHIL [1] was 7.67% and the “NUCLEATED RED BLOOD CELLS” value [1] was 0 /100WBC. For the same molecule, the “PLATELET COUNT” value [1] was 1239 x10E3/uL, the “ALANINE AMINOTRANSFERASE” value [1] was 50 u/L and the ALBUMIN [1] was 4.2 G/DL. The “ALKALINE PHOSPHATASE” value [1] was 452.67 u/L, the “ASPARTATE AMINOTRANSFERASE” value [1] was 79.67 u/L and the “BLOOD UREA NITROGEN” value [1] was 16.33 mg/dL. For the same molecule, the “CARBON DIOXIDE” value [1] was 29.67 mmol/L, the CHLORIDE [1] was 100.33 MEQ/L and the CHOLESTEROL [1] was 68 mg/dL. For the same molecule, the “CREATINE PHOSPHOKINASE” value [1] was 219.67 u/L, the CREATININE [1] was 0.15 mg/dL and the GLUCOSE [1] was 131.33 mg/dL. The “LACTATE DEHYDROGENASE” value [1] was 184 u/L, the LIPASE [1] was 11 u/L and the PHOSPHORUS [1] was 10.8 mg/dL. For the same molecule, the POTASSIUM [1] was 5.91 MEQ/L, the SODIUM [1] was 142.03 MEQ/L and the “TOTAL BILIRUBIN” value [1] was 0.13 mg/dL. For the same molecule, the “TOTAL PROTEIN” value [1] was 5.73 G/DL, the “URIC ACID” value [1] was 1.13 mg/dL and the “ABSOLUTE BASOPHIL” value [2] was 0 CELLS/uL. The “ABSOLUTE EOSINOPHIL” value [2] was 0 CELLS/uL, the “ABSOLUTE LYMPHOCYTE” value [2] was 9108 CELLS/uL and the “ABSOLUTE MONOCYTE” value [2] was 0 CELLS/uL. For the same molecule, the “ABSOLUTE SEGMENTED NEUTROPHIL” value [2] was 792 CELLS/uL, the BASOPHIL [2] was 0% and the EOSINOPHIL [2] was 0%. The “ERYTHROCYTE COUNT” value [2] was 5.62 x10E6/uL, the HEMATOCRIT [2] was 33.4% and the HEMOGLOBIN [2] was 13 G/DL. For the same molecule, the “LEUKOCYTE COUNT” value [2] was 9.9 x10E3/uL, the LYMPHOCYTE [2] was 92% and the “MEAN CORPUSCULAR HEMOGLOBIN” value [2] was 23.1 pg. The “MEAN CORPUSCULAR HEMOGLOBIN CONCENTRATION” value [2] was 38.9 G/DL, the “MEAN CORPUSCULAR VOLUME” value [2] was 59.4 fL and the MONOCYTE [2] was 0%. For the same molecule, the NEUTROPHIL [2] was 8%, the “NUCLEATED RED BLOOD CELLS” value [2] was 0 /100WBC and the “PLATELET COUNT” value [2] was 1418 x10E3/uL. The “ALANINE AMINOTRANSFERASE” value [2] was 36 u/L, the ALBUMIN [2] was 4.1 G/DL and the “ALKALINE PHOSPHATASE” value [2] was 257 u/L. The “ASPARTATE AMINOTRANSFERASE” value [2] was 59 u/L, the “BLOOD UREA NITROGEN” value [2] was 21 mg/dL and the “CARBON DIOXIDE” value [2] was 32 mmol/L. The CHLORIDE [2] was 99 MEQ/L, the CHOLESTEROL [2] was 74 mg/dL and the “CREATINE PHOSPHOKINASE” value [2] was 207 u/L. The CREATININE [2] was 0.14 mg/dL, the GLUCOSE [2] was 142 mg/dL and the “LACTATE DEHYDROGENASE” value [2] was 151 u/L. It also gave an LIPASE [2] of 10 u/L, a PHOSPHORUS [2] of 10.8 mg/dL and a POTASSIUM [2] of 5.22 MEQ/L. For the same molecule, the SODIUM [2] was 139.9 MEQ/L, the “TOTAL BILIRUBIN” value [2] was 0.1 mg/dL and the “TOTAL PROTEIN” value [2] was 5.4 G/DL. The “URIC ACID” value [2] was 1.3 mg/dL, the “ABSOLUTE BASOPHIL” value [3] was 0 CELLS/uL and the “ABSOLUTE EOSINOPHIL” value [3] was 0 CELLS/uL. For the same molecule, the “ABSOLUTE LYMPHOCYTE” value [3] was 8493.67 CELLS/uL, the “ABSOLUTE MONOCYTE” value [3] was 293 CELLS/uL and the “ABSOLUTE SEGMENTED NEUTROPHIL” value [3] was 980 CELLS/uL. The BASOPHIL [3] was 0%, the EOSINOPHIL [3] was 0% and the “ERYTHROCYTE COUNT” value [3] was 5.59 x10E6/uL. The HEMATOCRIT [3] was 33.5%, the HEMOGLOBIN [3] was 13.07 G/DL and the “LEUKOCYTE COUNT” value [3] was 9.77 x10E3/uL. The LYMPHOCYTE [3] was 87.67%, the “MEAN CORPUSCULAR HEMOGLOBIN” value [3] was 23.37 pg and the “MEAN CORPUSCULAR HEMOGLOBIN CONCENTRATION” value [3] was 39 G/DL. The “MEAN CORPUSCULAR VOLUME” value [3] was 59.97 fL, the MONOCYTE [3] was 3% and the NEUTROPHIL [3] was 9.33%. For the same molecule, the “NUCLEATED RED BLOOD CELLS” value [3] was 0 /100WBC, the “PLATELET COUNT” value [3] was 1213 x10E3/uL and the “ALANINE AMINOTRANSFERASE” value [3] was 40.33 u/L. For the same molecule, the ALBUMIN [3] was 4.2 G/DL, the “ALKALINE PHOSPHATASE” value [3] was 309.67 u/L and the “ASPARTATE AMINOTRANSFERASE” value [3] was 58.67 u/L. For the same molecule, the “BLOOD UREA NITROGEN” value [3] was 18.33 mg/dL, the “CARBON DIOXIDE” value [3] was 25.67 mmol/L and the CHLORIDE [3] was 101 MEQ/L. For the same molecule, the CHOLESTEROL [3] was 65.33 mg/dL, the “CREATINE PHOSPHOKINASE” value [3] was 302.33 u/L and the CREATININE [3] was 0.16 mg/dL. The GLUCOSE [3] was 143 mg/dL, the “LACTATE DEHYDROGENASE” value [3] was 125 u/L and the LIPASE [3] was 11.33 u/L. It also gave a PHOSPHORUS [3] of 10.47 mg/dL, a POTASSIUM [3] of 5.72 MEQ/L and an SODIUM [3] of 140.6 MEQ/L. For the same molecule, the “TOTAL BILIRUBIN” value [3] was 0.17 mg/dL, the “TOTAL PROTEIN” value [3] was 5.47 G/DL and the “URIC ACID” value [3] was 1.43 mg/dL.
